According to US6800794B1, “Nucleic acid comprising the sequence of a promoter unductible by stress and a gene sequence coding for a stilbene synthase” (Champagne Moet & Chandon, priority 1998, dated 2004):

Experiments:
[1] = tested on: zoospores of Plasmopora viticola; conditions: according to DAÏ (1994); cited from earlier work
[2] = tested on: Botrytis cinerea conidia; conditions: according to PONT and PEZET (1990); cited from earlier work
[3] = tested on: Botrytis cinerea mycelium, strain 916T; assay: Inhibition of the growth of Botrytis cinerea mycelium on malt medium containing resveratrol; type: cell-based
Method: FIG. 9: Inhibition of the growth of Botrytis cinerea mycelium, strain 916T, after 7 days at 20° C.
The mycelium is cultured on a malt/glucose medium containing different concentrations of resveratrol.
A study was carried out of the action of the molecule on the growth of mycelial hyphae of Botrytis cinera in culture on a malt/agar medium containing a resveratrol dilution range of from 10^−1 M to 3.7.10^−3 M, with the hyphae being incubated at ambient temperature for 7 days. […] However, this inhibition […] progressively after 7 days of culture under these conditions, which are otherwise very favourable to the growth of the fungus. After 20 days, the fungus finally infects the whole of the culture surface.

IC50 ([3]; Botrytis cinerea, 168 h, read-out: inhibitory effect on growth of mycelial hyphae (IC50), malt/agar medium, 7 days, ambient temperature (FIG. 9: 20° C.)): 500 µM
SMILES: Oc1ccc(C=Cc2cc(O)cc(O)c2)cc1 [resveratrol]
effect on the development of the zoospores [1]: inhibitory effect | blocking of germination of conidia [2]: does not block | inhibitory activity on the growth of the mycelium ([3]; at 37 μmol.^−1, 7 days): very slight inhibitory activity | concentrations giving an exponential decrease in the mean growth diameter of the fungus ([3]; malt/agar medium, 7 days): greater than 125 μmol.1^−1
